Measurements as given in patent US9808477B2 (Macau University of Science and Technology, priority 2015, dated 2017).
pEC50, pIC50: −log10 of the molar value.

What was measured:
[1] = target: T1, recombinant human ABCB1 membranes (P-gp ATPase) (Homo sapiens, UniProt P08183); assay: ABCB1 ATPase activity assay (PgpGlo); type: biochemical
T1 construct: purchased Promega
Description: Sodium orthovanadate (Na3VO4) was used as an ABCB1 ATPase inhibitor. […] Luminescence was initiated by ATP detection buffer. The plate (white opaque 96-well, corning, USA) was further incubated at room temperature for […] to develop luminescent signal, and was read with luminometer (infinite M200 PRO, TECAN, Switzerland).

[2] = test system: ABCB1 transfected cell line LLC-GA5-COL300; settings: nobiletin 20 μM; cited from earlier work
[3] = test system: prostate cancer cell lines; settings: several prostate cancer cell lines; read-out: IC50, growth inhibition; cited from earlier work
[4] = test system: MDR1 mRNA in A2780/T cells; assay: RT-PCR analysis of MDR1 mRNA; type: cell-based, human; settings: nobiletin at concentrations used in reversal assays, 48 h
Description: RT-PCR was performed to evaluate MDR1 mRNA expression. mRNA from cell lysates were purified by binding to poly(dT) magnetic beads (Life technologies) and reverse transcribed by using SuperScript II (Life technologies). Standard quantitative RT-PCR was performed in duplicates at least two to three times by using SYBR Green (Molecular Probes) protocols on the ViiA™ 7 Real-Time PCR System (Life technologies). The primer sequences: 5′-[…]-3′ (SEQ ID NO:1) and 3′-[…]-5′ (SEQ ID NO:2) for MDR1, and 5′-[…]-3′ (SEQ ID NO:3) and 3′-[…]-[…]-5′ (SEQ ID NO:4) for control gene eukaryotic translation initiation factor (TIF). RT-PCR data were normalized by measuring average cycle threshold (Ct) ratios between candidate genes and control gene TIF.

T1 sequence (P08183 whole entry): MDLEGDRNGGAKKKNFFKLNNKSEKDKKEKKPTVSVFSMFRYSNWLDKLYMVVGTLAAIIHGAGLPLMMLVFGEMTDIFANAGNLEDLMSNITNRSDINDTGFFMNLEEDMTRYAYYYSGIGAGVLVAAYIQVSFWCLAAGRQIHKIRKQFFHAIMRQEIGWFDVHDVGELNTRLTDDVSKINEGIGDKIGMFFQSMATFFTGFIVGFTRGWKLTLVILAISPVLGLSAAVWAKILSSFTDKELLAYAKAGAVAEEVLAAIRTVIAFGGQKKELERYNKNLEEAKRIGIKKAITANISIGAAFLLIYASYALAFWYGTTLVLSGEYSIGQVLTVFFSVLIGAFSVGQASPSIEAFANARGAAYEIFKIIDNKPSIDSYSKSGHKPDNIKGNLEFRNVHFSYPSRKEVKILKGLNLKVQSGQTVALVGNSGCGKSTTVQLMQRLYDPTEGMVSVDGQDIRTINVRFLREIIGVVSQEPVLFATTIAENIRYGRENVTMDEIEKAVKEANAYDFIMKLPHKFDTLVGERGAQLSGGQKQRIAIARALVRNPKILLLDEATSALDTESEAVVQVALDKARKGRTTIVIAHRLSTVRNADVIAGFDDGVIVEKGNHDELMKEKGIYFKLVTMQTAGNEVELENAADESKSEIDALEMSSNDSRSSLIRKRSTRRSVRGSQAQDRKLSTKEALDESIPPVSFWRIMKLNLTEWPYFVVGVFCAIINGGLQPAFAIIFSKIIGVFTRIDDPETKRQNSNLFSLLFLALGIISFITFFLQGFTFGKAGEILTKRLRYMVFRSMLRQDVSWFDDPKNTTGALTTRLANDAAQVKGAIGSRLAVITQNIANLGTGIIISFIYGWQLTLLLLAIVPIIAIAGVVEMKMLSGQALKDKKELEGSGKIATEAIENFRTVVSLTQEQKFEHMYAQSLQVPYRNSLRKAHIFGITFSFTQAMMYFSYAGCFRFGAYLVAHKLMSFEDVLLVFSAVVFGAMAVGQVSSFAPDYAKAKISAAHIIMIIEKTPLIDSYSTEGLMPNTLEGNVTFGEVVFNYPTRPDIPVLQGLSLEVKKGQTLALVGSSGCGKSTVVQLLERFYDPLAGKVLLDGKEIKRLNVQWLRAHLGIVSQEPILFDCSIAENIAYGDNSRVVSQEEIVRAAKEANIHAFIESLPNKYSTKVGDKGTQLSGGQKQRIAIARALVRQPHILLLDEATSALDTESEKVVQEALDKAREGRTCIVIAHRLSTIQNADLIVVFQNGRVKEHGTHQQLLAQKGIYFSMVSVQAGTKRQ

## COc1ccc(-c2cc(=O)c3c(OC)c(OC)c(OC)c(OC)c3o2)cc1OC [nobiletin]
[1]
  pEC50: 5.23
  pIC50: 5.14
[1]; human, 40 min
  maximal stimulation of ATPase activity relative to basal activity: 3 fold
[2]
  increase of uptake of [3H] vinblastine: 1.8 fold
[3]
  pIC50: ~4.00
[4]
  expression of MDR1 mRNA: did not significantly alter
